{"source": "patent US12351648B2", "about": "“Methods of inhibiting MASP-2 for the treatment and/or prevention of coronavirus-induced acute respiratory distress syndrome” (priority 2020, dated 2025)", "key": {"MASP-2 (CCP1-CCP2-SP)": {"molecular_target": "MASP-2 (CCP1-CCP2-SP) (Homo sapiens (Human), UniProt O00187)", "sequence (O00187 287-686)": "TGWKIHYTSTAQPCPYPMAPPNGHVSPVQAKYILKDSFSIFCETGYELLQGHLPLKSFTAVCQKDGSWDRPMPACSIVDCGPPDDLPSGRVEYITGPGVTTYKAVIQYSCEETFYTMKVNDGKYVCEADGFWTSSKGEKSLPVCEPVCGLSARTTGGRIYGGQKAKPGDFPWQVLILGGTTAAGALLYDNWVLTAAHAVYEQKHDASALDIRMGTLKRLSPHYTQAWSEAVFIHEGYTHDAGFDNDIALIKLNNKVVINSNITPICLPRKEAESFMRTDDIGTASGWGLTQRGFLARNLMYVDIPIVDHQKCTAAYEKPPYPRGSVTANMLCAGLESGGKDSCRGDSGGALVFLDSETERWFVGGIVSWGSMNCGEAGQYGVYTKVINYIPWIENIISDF", "assay": "Enzymatic assay for MASP-2 (fluorogenic substrate)", "format": "biochemical", "conditions": "for MASP-2 vs. thrombin selectivity: MASP-2 inhibition versus thrombin"}, "human α-thrombin": {"molecular_target": "human α-thrombin (Homo sapiens (Human), UniProt P00734)", "assay": "Enzymatic assay for thrombin (Boc-VPR-AMC)", "format": "biochemical"}, "lectin pathway": {"test_system": "lectin pathway", "assay": "Lectin pathway activation assay in 1% human serum (C3 deposition on mannan, ELISA)", "format": "biochemical"}, "mMASP-2 [1]": {"molecular_target": "T1, mMASP-2 (Mus musculus (Mouse), UniProt Q91WP0)", "T1 sequence (Q91WP0 20-685)": "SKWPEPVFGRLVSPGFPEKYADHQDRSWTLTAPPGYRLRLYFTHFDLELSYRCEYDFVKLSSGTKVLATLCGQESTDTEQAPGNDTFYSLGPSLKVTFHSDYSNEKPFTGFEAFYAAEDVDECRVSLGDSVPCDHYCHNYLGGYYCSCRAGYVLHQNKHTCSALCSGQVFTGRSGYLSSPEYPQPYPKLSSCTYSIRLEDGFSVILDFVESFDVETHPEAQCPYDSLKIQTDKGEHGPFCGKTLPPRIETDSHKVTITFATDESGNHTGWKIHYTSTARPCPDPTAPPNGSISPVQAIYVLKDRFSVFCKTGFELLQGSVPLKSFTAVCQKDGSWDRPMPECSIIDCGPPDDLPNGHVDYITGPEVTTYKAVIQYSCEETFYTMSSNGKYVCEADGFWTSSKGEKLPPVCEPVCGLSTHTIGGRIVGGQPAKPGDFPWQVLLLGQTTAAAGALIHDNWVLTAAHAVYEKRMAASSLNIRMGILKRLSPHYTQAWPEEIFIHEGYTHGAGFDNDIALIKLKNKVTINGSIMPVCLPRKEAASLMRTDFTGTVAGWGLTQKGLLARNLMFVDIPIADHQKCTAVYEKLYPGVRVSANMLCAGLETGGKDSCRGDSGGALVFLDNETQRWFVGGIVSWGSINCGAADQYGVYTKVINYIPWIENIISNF", "assay": "Enzymatic assay for mMASP-2 (Ki)", "format": "biochemical"}, "mMASP-2 [2]": {"molecular_target": "T1, mMASP-2", "assay": "Enzymatic assay for mMASP-2 (Ki)", "format": "biochemical", "remark": "listed apart in the source"}, "COVID-19 patients": {"test_system": "COVID-19 patients", "conditions": "cited from earlier work; for 28-day mortality: […] with usual care"}, "[3]": {"conditions": "Thrombin Ki, human α-thrombin, Boc-VPR-AMC"}, "[4]": {"conditions": "human α-thrombin, Boc-VPR-AMC, read-out: Thrombin Ki"}, "[5]": {"conditions": "oxygen support without invasive mechanical ventilation"}}, "note": "Read-outs that look alike come from different tables or passages of the source. Non-standard residues stand in square brackets, D forms with d. Residues, ends and D or L forms follow the SMILES beside them. *: point of attachment. dChg = N[C@@H](C(=O)O)C1CCCCC1; Agmatine = N=C(N)NCCCCN*; Aze = O=C(O)[C@@H]1CCN1", "data": [{"smiles": "N=C(N)NCCCCNC(=O)[C@@H]1CCN1C(=O)[C@H](N)C1CCCCC1", "note": "[Compound 1006] (H-[dChg]-[Aze]-Agmatine)", "values": [{"measurement": "MASP-2 vs. thrombin selectivity", "setting": "MASP-2 (CCP1-CCP2-SP)", "result": "— (less than 1.0-fold)"}]}, {"smiles": "C[C@H](NC(=O)C1CC(c2ccccc2)CCN1)C(=O)NCc1ccc(N)nc1", "note": "(stereo partly drawn) [Compound 1025]", "values": [{"measurement": "Ki", "setting": "human α-thrombin; [3]", "result": "> 25", "unit": "µM"}, {"measurement": "IC50", "setting": "lectin pathway; read-out: Lectin Pathway IC50", "result": "500 to 5000", "unit": "nM"}]}, {"smiles": "N=C(N)c1ccc(CNC(=O)[C@@H]2CCCN2C(=O)[C@H](N)C2CCCCC2)cc1", "note": "[Compound 1027]", "values": [{"measurement": "MASP-2 vs. thrombin selectivity", "setting": "MASP-2 (CCP1-CCP2-SP)", "result": "— (less than 1.0-fold)"}]}, {"smiles": "C[C@H](NC(=O)[C@H](N)CCc1ccccc1)C(=O)NCc1ccc2nc(N)[nH]c2c1", "note": "[Compound 1040]", "values": [{"measurement": "Ki", "setting": "human α-thrombin; [3]", "result": "> 25", "unit": "µM"}, {"measurement": "IC50", "setting": "lectin pathway; read-out: Lectin Pathway IC50", "result": "500 to 5000", "unit": "nM"}, {"measurement": "MASP-2 vs. thrombin selectivity", "setting": "MASP-2 (CCP1-CCP2-SP)", "result": "**** (>100-fold)"}, {"measurement": "Ki", "setting": "MASP-2 (CCP1-CCP2-SP); read-out: MASP-2 Ki", "result": "< 0.5", "unit": "µM"}, {"measurement": "Ki", "setting": "mMASP-2 [1]", "result": "< 500", "unit": "nM"}]}, {"smiles": "C[C@H](NC(=O)[C@H](N)CCc1ccc(F)cc1)C(=O)NCc1ccc(C(=N)N)cc1", "note": "[Compound 1047]", "values": [{"measurement": "Ki", "setting": "human α-thrombin; [4]", "result": "< 2.5", "unit": "µM"}]}, {"smiles": "C[C@H](NC(=O)C1CC(c2ccccc2)CCN1)C(=O)NCc1ccc(C(=N)N)cc1", "note": "(stereo partly drawn) [Compound 1065]", "values": [{"measurement": "IC50", "setting": "lectin pathway; read-out: Lectin Pathway IC50", "result": "< 50", "unit": "nM"}, {"measurement": "Ki", "setting": "mMASP-2 [1]", "result": "< 500", "unit": "nM"}]}, {"smiles": "C[C@H](NC(=O)[C@@H](CCc1ccccc1)NC1CCCCC1)C(=O)NCc1ccc(C(=N)N)cc1", "note": "[Compound 1130]", "values": [{"measurement": "MASP-2 vs. thrombin selectivity", "setting": "MASP-2 (CCP1-CCP2-SP)", "result": "— (less than 1.0-fold)"}]}, {"smiles": "C[C@H](NC(=O)[C@@H](CCc1ccccc1)NCc1ccc(O)cc1)C(=O)NCc1ccc(C(=N)N)cc1", "note": "[Compound 1140]", "values": [{"measurement": "MASP-2 vs. thrombin selectivity", "setting": "MASP-2 (CCP1-CCP2-SP)", "result": "— (less than 1.0-fold)"}]}, {"smiles": "C[C@H](NC(=O)[C@@H](CCc1ccccc1)NCc1ccc(F)cc1)C(=O)NCc1ccc(C(=N)N)cc1", "note": "[Compound 1141]", "values": [{"measurement": "Ki", "setting": "human α-thrombin; [4]", "result": "< 0.5", "unit": "µM"}, {"measurement": "MASP-2 vs. thrombin selectivity", "setting": "MASP-2 (CCP1-CCP2-SP)", "result": "— (less than 1.0-fold)"}, {"measurement": "Ki", "setting": "MASP-2 (CCP1-CCP2-SP); read-out: MASP-2 Ki", "result": "< 0.5", "unit": "µM"}]}, {"smiles": "COC(=O)CCCCCN[C@H](CCc1ccccc1)C(=O)N[C@@H](C)C(=O)NCc1ccc(C(=N)N)cc1", "note": "[Compound 1142]", "values": [{"measurement": "Ki", "setting": "human α-thrombin; [4]", "result": "< 0.5", "unit": "µM"}, {"measurement": "MASP-2 vs. thrombin selectivity", "setting": "MASP-2 (CCP1-CCP2-SP)", "result": "* (1.0 to 5.0-fold)"}, {"measurement": "Ki", "setting": "MASP-2 (CCP1-CCP2-SP); read-out: MASP-2 Ki", "result": "< 0.5", "unit": "µM"}]}, {"smiles": "C[C@H](NC(=O)[C@@H](CCc1ccccc1)NCc1cc2ccccc2[nH]1)C(=O)NCc1ccc(C(=N)N)cc1", "note": "[Compound 1143]", "values": [{"measurement": "Ki", "setting": "human α-thrombin; [4]", "result": "< 0.5", "unit": "µM"}, {"measurement": "MASP-2 vs. thrombin selectivity", "setting": "MASP-2 (CCP1-CCP2-SP)", "result": "— (less than 1.0-fold)"}, {"measurement": "Ki", "setting": "MASP-2 (CCP1-CCP2-SP); read-out: MASP-2 Ki", "result": "< 0.5", "unit": "µM"}, {"measurement": "Ki", "setting": "mMASP-2 [1]", "result": "< 500", "unit": "nM"}]}, {"smiles": "C[C@H](NC(=O)[C@H]1CCc2ccccc2N1)C(=O)NCc1ccc(C(=N)N)cc1", "note": "[Compound 1215]", "values": [{"measurement": "Ki", "setting": "mMASP-2 [1]", "result": "< 25000", "unit": "nM"}]}, {"smiles": "C[C@H](NC(=O)[C@H](N)CCc1ccccc1)C(=O)NCc1ccc(C(=N)N)cc1", "note": "[Compound 1218]", "values": [{"measurement": "MASP-2 vs. thrombin selectivity", "setting": "MASP-2 (CCP1-CCP2-SP)", "result": "— (less than 1.0-fold)"}]}, {"smiles": "CCOC(=O)COc1ccc(Cl)cc1CNC(=O)[C@H](C)NC(=O)[C@H](N)CCc1ccccc1", "note": "[Compound 1229]", "values": [{"measurement": "Ki", "setting": "human α-thrombin; [4]", "result": "< 10", "unit": "µM"}]}, {"smiles": "CCCCOC(=O)NC(=N)c1ccc(CNC(=O)[C@H](C)NC(=O)[C@H]2C[C@H](c3ccccc3)CN2)cc1", "note": "[Compound 1260]", "values": [{"measurement": "Ki", "setting": "human α-thrombin; Thrombin Ki (μM)", "result": "> 25", "unit": "µM"}, {"measurement": "Ki", "setting": "MASP-2 (CCP1-CCP2-SP); MASP-2 Ki (μM)", "result": "2.5 to 10", "unit": "µM"}]}, {"smiles": "CC[C@H](NC(=O)[C@H](N)CCc1ccccc1)C(=O)NCc1ccc(C(=N)N)cc1", "note": "[Compound 1289]", "values": [{"measurement": "MASP-2 vs. thrombin selectivity", "setting": "MASP-2 (CCP1-CCP2-SP)", "result": "— (<1.0-fold)"}]}, {"smiles": "C[C@H](NC(=O)[C@H](N)CCc1ccccc1)C(=O)NCc1cc(Cl)ccc1-n1cnnn1", "note": "[Compound 1325]", "values": [{"measurement": "MASP-2 vs. thrombin selectivity", "setting": "MASP-2 (CCP1-CCP2-SP)", "result": "— (<1.0-fold)"}]}, {"smiles": "C[C@H](NC(=O)[C@H]1C[C@H](Cc2ccccc2)CN1)C(=O)NCc1cnc2[nH]cc(Cl)c2c1", "note": "[Compound 1334]", "values": [{"measurement": "MASP-2 vs. thrombin selectivity", "setting": "MASP-2 (CCP1-CCP2-SP)", "result": "— (<1.0-fold)"}]}, {"smiles": "Cc1nc(N)ccc1CNC(=O)[C@H](C)NC(=O)[C@H]1C[C@H](Cc2ccc3ccccc3c2)CN1", "note": "[Compound 1338]", "values": [{"measurement": "MASP-2 vs. thrombin selectivity", "setting": "MASP-2 (CCP1-CCP2-SP)", "result": "*** (≥25 to <100-fold)"}]}, {"smiles": "Cc1nc(N)ccc1CNC(=O)[C@@H](C)NC(=O)[C@H]1C[C@H](c2cccc(-c3ccccc3)c2)CN1", "note": "[Compound 1359]", "values": [{"measurement": "Ki", "setting": "human α-thrombin; Thrombin Ki (μM)", "result": "> 25", "unit": "µM"}, {"measurement": "Ki", "setting": "mMASP-2 [2]", "result": "10000 to 25000", "unit": "nM"}]}, {"smiles": "Cc1nc(N)ccc1CNC(=O)[C@H](C)NC(=O)[C@H]1C[C@H](c2cccc(-c3ccccc3)c2)CN1", "note": "[Compound 1360]", "values": [{"measurement": "Ki", "setting": "human α-thrombin; Thrombin Ki (μM)", "result": "> 25", "unit": "µM"}, {"measurement": "IC50", "setting": "lectin pathway; read-out: Lectin Pathway IC50", "result": "50 to 500", "unit": "nM"}, {"measurement": "Ki", "setting": "mMASP-2 [2]", "result": "< 500", "unit": "nM"}]}, {"smiles": "Cc1nc(N)ccc1CNC(=O)[C@H](C)NC(=O)[C@H]1C[C@@H](c2ccccc2)CCN1CC(=O)O", "note": "[Compound 1398]", "values": [{"measurement": "Ki", "setting": "mMASP-2 [2]", "result": "< 500", "unit": "nM"}]}, {"smiles": "C[C@H](NC(=O)[C@H]1C[C@H](Cc2cccc3ccccc23)CN1)C(=O)NCc1cc(Cl)ccc1-n1cnnn1", "note": "[Compound 1414]", "values": [{"measurement": "MASP-2 vs. thrombin selectivity", "setting": "MASP-2 (CCP1-CCP2-SP)", "result": "— (<1.0-fold)"}]}, {"smiles": "Cc1nc(N)ccc1CNC(=O)[C@H](C)NC(=O)[C@H]1CC(Cc2ccc(F)cc2)(Cc2ccc(F)cc2)CN1", "note": "[Compound 1480]", "values": [{"measurement": "Ki", "setting": "mMASP-2 [2]", "result": "< 500", "unit": "nM"}]}, {"smiles": "N=C(N)c1ccc2[nH]c(Cc3nc4ccccc4[nH]3)nc2c1", "note": "[Compound 2015]", "values": [{"measurement": "Ki", "setting": "MASP-2 (CCP1-CCP2-SP); MASP-2 Ki (μM), −Zn", "result": "< 10", "unit": "µM"}]}, {"smiles": "N=C(N)c1ccc(CNC(=O)Cn2c(=O)n(Cc3ccccc3)c(=O)c3ccc(C(=O)NC4CCCCC4)cc32)cc1", "note": "[Compound 2021]", "values": [{"measurement": "IC50", "setting": "lectin pathway; read-out: Lectin Ki (Lectin Pathway Inhibition, IC50)", "result": "5000 to 50000", "unit": "nM"}]}, {"smiles": "C[C@@H]1C[C@H]2[C@@H]3CCC4=CC(=O)C=C[C@]4(C)[C@@]3(F)[C@@H](O)C[C@]2(C)[C@@]1(O)C(=O)CO", "note": "[dexamethasone]", "values": [{"measurement": "28-day mortality", "setting": "COVID-19 patients; invasive mechanical ventilation", "result": 29.0, "unit": "%"}, {"measurement": "28-day mortality", "setting": "COVID-19 patients; no respiratory support at randomization", "result": 17.0, "unit": "%"}, {"measurement": "28-day mortality", "setting": "COVID-19 patients; [5]", "result": 21.5, "unit": "%"}, {"measurement": "Reduction of 28-day mortality", "setting": "COVID-19 patients; [5]", "result": 14, "unit": "%"}, {"measurement": "Reduction of 28-day mortality", "setting": "COVID-19 patients; patients on invasive mechanical ventilation", "result": 28.7, "unit": "%"}]}]}
